Measured values published in US20040170714A1, “Bauhinia extracts” (priority 2001, published 2004).

Experiments:
[1] = test system: N0-STZ rats; experiment: Oral Glucose Tolerance Test (OGTT) in the N0-STZ rat model after 5 days of gavage; type: in vivo; conditions: Example 2a, 2 × 100 mg/kg daily for 5 days
Method: The N0-STZ rat model is described in Portha B., Picon L., Rosselin G., Diabetologia, 1979, 17, 371-377. The Oral Glucose Tolerance Test (OGTT) is described in Wilkerson: Diagnosis, oral glucose tolerance test: in Diabetes mellitus, Diagnosis & Treatment, p.31-34, NY, American Diabetes Association, 1964. During 5 days an appropriate dose of the extract is gavaged into the N0-STZ rats two times a day. Three hours after the last administration the Oral Glucose Tolerance Test (OGTT) is performed in awake rats by administering 2 g glucose/kg body weight. Blood samples are collected just before glucose administration (0 min) and after 30, 60 90, 120 and 180 minutes.
(§1) The N0-STZ rat model is used to evaluate the efficacy of the extract of example 1. During 5 days an appropriate dose of the drug (table 1) is gavaged into 8 N0-STZ rats two times a day. Three hours after the last administration the Oral Glucose Tolerance Test (OGTr) is performed in awake rats by administering 2 g glucose/kg body weight. Blood samples are collected just before glucose administration (0 min) and after 30, 60 90 and 120 minutes.
as §1, with “5)” for “1)”, “rats.” for “rats two times a day.”, “(OGTT)” for “(OGTr)”

[2] = test system: N0-STZ rats; experiment: Fasting plasma glucose concentration on day 5 in the N0-STZ rat model; type: in vivo; conditions: 2 × 100 mg/kg daily; day 5, after 2 hour fasting, before glucose; control −14
Method: The fasting plasma glucose concentration (table 4) is measured from blood samples obtained after a 2 hour fasting period on day 5 before the administration of glucose. In addition, preferred extracts of the invention in hand show a significant decrease of the fasting plasma glucose concentration versus initial basal glycemia. Preferred extracts show a decrease of the fasting plasma glucose concentration of at least 10%, more preferred of at least 28% versus initial basal glycemia.
The fasting plasma glucose concentration (table 4) is measured from blood samples obtained after a 2 hour fasting period on day 5 before the administration of glucose.

Compound: CN(C)C(=N)N=C(N)N [example 24, metformin]
- OGTT area under curve: deviation from control (23) [1]: −18%
- OGTT: Area under curve (Integration of the Plasma Glucose Level versus time, table 2) ([1]; 0-120 min): 26363
- Plasma Glucose Level ([1]; 30 min after 2 g glucose/kg): 245 mg/dL
- Plasma Glucose Level ([1]; 60 min after 2 g glucose/kg): 242 mg/dL
- Plasma Glucose Level ([1]; 90 min after 2 g glucose/kg): 223 mg/dL
- Plasma Glucose Level ([1]; 120 min after 2 g glucose/kg): 207 mg/dL
- Plasma Glucose Level ([1]; time −0 min (just before 2 g glucose/kg)): 143 mg/dL
- Effect on fasting Plasma Glucose Concentration in % of variation versus initial basal glycemia [2]: −31%
